Source: patent US9155778B2, “Tripeptides that down regulate the activity of plasma membrane transporters including sodium-D-glucose cotransporter SgIt1” (JULIUS-MAXMILLIANS-UNIVERSITAT WURZBURG, priority 2005, dated 2015)

How the values were obtained:
rbSGLT1 = target: T1, rbSGLT1 (Oryctolagus cuniculus, UniProt P11170); test: rbSGLT1 expressed [14C]AMG uptake in oocytes after peptide injection; format: cell-based, rabbit; conditions: 50 nl containing 3 mM of each peptide, 30 min, 50 μM [14C]AMG; compared with hSGLT1
T1 construct: expressed in transfected cells; host or cells: Xenopus laevis oocytes (cRNA injection)
T1 sequence (P11170 1-662): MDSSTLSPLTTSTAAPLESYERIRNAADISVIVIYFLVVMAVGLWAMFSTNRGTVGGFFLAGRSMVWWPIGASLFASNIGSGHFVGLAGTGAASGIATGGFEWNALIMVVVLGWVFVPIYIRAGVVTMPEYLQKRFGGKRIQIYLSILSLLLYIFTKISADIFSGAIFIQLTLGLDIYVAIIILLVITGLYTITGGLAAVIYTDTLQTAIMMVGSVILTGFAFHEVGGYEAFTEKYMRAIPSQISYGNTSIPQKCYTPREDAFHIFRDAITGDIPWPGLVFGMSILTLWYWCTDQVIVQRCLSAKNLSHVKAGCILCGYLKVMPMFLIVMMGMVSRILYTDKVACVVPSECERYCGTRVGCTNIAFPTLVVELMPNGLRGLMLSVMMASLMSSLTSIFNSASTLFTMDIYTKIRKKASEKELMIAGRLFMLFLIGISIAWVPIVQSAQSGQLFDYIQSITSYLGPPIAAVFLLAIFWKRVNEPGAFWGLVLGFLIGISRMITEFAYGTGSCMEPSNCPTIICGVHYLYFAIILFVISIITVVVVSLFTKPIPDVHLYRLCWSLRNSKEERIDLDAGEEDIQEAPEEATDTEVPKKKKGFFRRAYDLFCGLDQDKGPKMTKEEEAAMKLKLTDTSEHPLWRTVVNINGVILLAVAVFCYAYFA
Procedure: (§1) The oocytes were incubated for three days at 16° C. in ORi buffer (in mM: 5 HEPES-Tris, pH 7.4, 100 NaCl, 3 KCl, 2 CaCl2, and 1 MgCl2). […] The oocytes were superfused with Ori buffer titrated to pH 6.5, the membrane potential of the oocytes was clamped to −40 mV, and inward current induced by superfusion with Ori buffer (pH 6.5) containing 5 mM of a control dipeptide or 5 mM of the tested tripeptide was measured. • (D) Expression and Purification of hRS1
To develop drugs on the basis of the identified peptides animal models are required.

[1] = tested on: sodium dependent amino acid transporters; conditions: 60 min, pH 6.5, 3 mM QCP; 10 mM amino acids
Procedure: Walls of small intestinal mucosa from mice are inserted into an Ussing chamber and transepitehial currents are measured that are induced by addition of 10 mM of various amino acids to the mucosal side.

SGLT1 = SGLT1 (Mus musculus, UniProt Q8C3K6); conditions: 60 min pre-incubation, pH 6.5, 3 mM QCP, 0.1 mM D-glucose
Chain of SGLT1 (Q8C3K6 whole entry): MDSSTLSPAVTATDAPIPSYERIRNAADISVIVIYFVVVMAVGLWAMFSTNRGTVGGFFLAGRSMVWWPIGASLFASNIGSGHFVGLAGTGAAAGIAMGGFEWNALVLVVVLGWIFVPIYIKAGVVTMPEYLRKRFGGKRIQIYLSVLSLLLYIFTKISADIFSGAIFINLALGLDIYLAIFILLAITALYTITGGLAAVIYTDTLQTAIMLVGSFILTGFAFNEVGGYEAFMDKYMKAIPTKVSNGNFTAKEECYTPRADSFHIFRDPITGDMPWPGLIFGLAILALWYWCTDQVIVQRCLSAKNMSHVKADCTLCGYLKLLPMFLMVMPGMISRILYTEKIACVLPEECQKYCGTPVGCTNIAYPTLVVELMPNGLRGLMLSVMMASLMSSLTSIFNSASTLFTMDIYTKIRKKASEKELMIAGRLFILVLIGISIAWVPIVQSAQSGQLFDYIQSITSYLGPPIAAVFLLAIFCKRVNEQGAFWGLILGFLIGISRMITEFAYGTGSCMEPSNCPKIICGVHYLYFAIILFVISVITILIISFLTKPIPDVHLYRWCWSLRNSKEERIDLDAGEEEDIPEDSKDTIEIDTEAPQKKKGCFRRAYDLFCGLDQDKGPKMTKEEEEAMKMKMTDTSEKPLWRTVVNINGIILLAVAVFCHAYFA
Procedure: Walls of small intestinal mucosa from mice are inserted into an Ussing chamber and the SGLT1 mediated transepitehila currents are measured that are induced by addition of 0.1 mM D-glucose to the mucosal side. […] After washing glucose-induced transepithelial currents are measured.

hOCT2 = hOCT2 (Homo sapiens, UniProt O15244); conditions: intracellular AMG 0.1 mM, <0.01 mM or 10 mM
Chain of hOCT2 (O15244 whole entry): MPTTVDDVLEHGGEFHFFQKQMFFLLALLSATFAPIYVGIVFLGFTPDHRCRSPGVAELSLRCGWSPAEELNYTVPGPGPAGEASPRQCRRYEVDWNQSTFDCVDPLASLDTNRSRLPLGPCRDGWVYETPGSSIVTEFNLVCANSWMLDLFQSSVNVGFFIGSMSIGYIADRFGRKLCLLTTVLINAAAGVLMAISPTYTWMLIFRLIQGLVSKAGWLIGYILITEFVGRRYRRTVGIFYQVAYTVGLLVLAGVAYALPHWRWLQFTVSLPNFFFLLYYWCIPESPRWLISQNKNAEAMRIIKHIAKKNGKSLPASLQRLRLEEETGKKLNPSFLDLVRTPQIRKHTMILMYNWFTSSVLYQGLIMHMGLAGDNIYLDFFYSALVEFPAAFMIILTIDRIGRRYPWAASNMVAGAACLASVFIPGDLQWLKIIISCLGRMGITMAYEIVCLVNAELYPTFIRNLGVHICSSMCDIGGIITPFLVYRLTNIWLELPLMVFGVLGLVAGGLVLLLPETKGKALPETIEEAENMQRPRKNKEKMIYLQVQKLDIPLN
Procedure: Corresponding measurements were performed in the presence of intracellular AMG concentrations of 0.1 mM, <0.01 mM or 10 mM.

hSGLT1 [2] = target: T2, hSGLT1 (Homo sapiens, UniProt P13866); test: hSGLT1 expressed [14C]AMG uptake in Xenopus oocytes after injection of hRS1 protein or peptides; format: cell-based
T2 construct: expressed in transfected cells; host or cells: Xenopus laevis oocytes (cRNA injection)
T2 sequence (P13866 1-664): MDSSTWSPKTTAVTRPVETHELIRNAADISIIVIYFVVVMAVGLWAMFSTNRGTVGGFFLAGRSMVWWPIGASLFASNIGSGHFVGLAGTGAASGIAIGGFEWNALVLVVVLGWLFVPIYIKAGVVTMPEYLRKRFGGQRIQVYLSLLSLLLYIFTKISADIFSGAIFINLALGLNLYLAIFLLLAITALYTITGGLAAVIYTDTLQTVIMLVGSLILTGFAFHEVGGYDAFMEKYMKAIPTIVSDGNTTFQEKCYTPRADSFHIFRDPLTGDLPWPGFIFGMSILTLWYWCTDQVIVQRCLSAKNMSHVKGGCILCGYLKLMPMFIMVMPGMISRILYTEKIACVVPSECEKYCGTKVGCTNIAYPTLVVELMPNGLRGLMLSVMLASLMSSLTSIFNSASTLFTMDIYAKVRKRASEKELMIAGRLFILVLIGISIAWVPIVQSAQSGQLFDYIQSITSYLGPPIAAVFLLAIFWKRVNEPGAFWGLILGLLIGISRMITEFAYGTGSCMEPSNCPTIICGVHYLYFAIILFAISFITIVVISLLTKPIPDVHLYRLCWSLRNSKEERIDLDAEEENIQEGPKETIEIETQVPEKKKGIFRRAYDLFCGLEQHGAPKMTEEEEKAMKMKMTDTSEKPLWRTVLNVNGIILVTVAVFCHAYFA

[3] = drinking water pH 6.0 with 10 mM QCP, 2 months, standard chow or sugar low diet
Description: The body weight development with and without peptide treatment is compared over 2 months. […] In corresponding experiments, rabbits are to be employed.

hPEPT1 = target: T3, hPEPT1 (Homo sapiens, UniProt P46059); test: Electrogenic peptide transport by hPEPT1 in oocytes, two-electrode voltage clamp; format: cell-based; conditions: pH 6.5
T3 construct: expressed in transfected cells; host or cells: Xenopus laevis oocytes (30 ng cRNA per oocyte)
T3 sequence (P46059 1-708): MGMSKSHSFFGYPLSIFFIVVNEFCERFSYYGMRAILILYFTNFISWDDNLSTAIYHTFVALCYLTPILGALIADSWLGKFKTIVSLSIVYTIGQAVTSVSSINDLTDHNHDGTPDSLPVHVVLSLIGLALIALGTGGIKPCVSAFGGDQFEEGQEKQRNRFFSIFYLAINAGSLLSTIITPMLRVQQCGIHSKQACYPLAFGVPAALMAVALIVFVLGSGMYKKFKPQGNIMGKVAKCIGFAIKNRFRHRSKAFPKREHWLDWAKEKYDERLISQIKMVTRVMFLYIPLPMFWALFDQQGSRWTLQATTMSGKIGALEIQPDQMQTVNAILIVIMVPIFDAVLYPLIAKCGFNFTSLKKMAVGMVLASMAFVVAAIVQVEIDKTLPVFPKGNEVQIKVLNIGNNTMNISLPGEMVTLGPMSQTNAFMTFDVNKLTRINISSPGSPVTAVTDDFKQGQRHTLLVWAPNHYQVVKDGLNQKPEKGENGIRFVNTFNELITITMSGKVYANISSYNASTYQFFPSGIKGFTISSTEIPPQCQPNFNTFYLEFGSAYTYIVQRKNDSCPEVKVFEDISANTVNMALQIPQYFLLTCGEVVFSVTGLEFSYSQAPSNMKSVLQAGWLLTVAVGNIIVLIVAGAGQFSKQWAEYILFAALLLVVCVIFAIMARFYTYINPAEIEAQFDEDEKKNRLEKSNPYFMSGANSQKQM
Procedure: as §1

hSGLT1 [4] = target: T2, hSGLT1; test: [14C]AMG uptake in oocytes after incubation with tripeptide in the medium; format: cell-based; conditions: pH 6.5
Procedure: In a different experimental setup, oocytes were injected with SGLT1 cRNA (2.5 ng per oocyte) or with hSGLT1 cRNA (2.5 ng per oocyte) plus hPEPT1 cRNA (10 ng per oocyte) and the oocytes were incubated 3 days for expression. Thereafter the oocytes were incubated 30 min with Ori buffer adjusted to pH 6.5 or with Ori buffer adjusted to pH 6.5 containing 3 mM of the tested tripeptide. Thereafter oocytes were washed with Ori buffer (pH 7.4) and uptake of [^14C]AMG was measured. • (F) Measurements of [^14C]AMG Uptake
Uptake measurements were performed as described (Veyhl (2003), J. Membrane Biol., 196, 71-81). Oocytes were incubated for 15 min at room temperature in ORi buffer containing 50 μM [^14C]AMG without or with 100 μM of the SGLT1 inhibitor phlorizin. The uptake was blocked and oocytes were washed with ice cold Ori buffer containing 100 μM phlorizin. Radioactivity in the oocytes was measured by liquid scintillation counting.
Thereafter the oocytes were washed with neutral Ori buffer and the hSGLT1 expressed uptake of 50 μM [^14C]AMG was measured (FIG. 7). […] Incubation of oocytes expressing hSGLT1 plus hPEPT1 with PCQ had no effect on the expressed uptake of [^14C]AMG.

In the case of Glutamine-Cysteine-Proline [QCP], the “effect on glucose uptake expressed by rbSGLT1” value (rbSGLT1) is reported as “same effect”, the “transepithelial flux of amino acids” value [1] is reported as “inhibits transepithelial flux of amino acids” and the transepithelial glucose flux (SGLT1) is reported as “inhibits transepithelial glucose flux”. For the same substance, the “hOCT2 expressed [14C]TEA uptake after injection” value (hOCT2) was “appears not to be inhibited”, the “inhibition of AMG uptake in the absence of BTXB” value (hSGLT1 [2]) was “inhibited” and the “inhibition of AMG uptake in the presence of BTXB” value (hSGLT1 [2]) was “no significant inhibition”. For the same substance, the “inhibition of glucose uptake expressed by hSGLT1” value (hSGLT1 [2]) was “about 50%”, the “inhibition of hSGLT1 expressed AMG uptake” value (hSGLT1 [2]) was 35-40% and the “inhibition of hSGLT1 expressed AMG uptake after stimulation of protein kinase C” value (hSGLT1 [2]) was “not changed”. For the same substance, the “inhibition of hSGLT1 expressed AMG uptake with coexpressed dominant negative mutant of dynamin I” value (hSGLT1 [2]) was “not changed”, the “inhibition of hSGLT1 expressed uptake of AMG after 3 h” value (hSGLT1 [2]) was 60% and the “inhibition of hSGLT1 expressed uptake of AMG after 5 h” value (hSGLT1 [2]) was “about 40%”. For the same substance, the “inhibition of hSGLT1 expressed uptake of AMG after 10 h” value (hSGLT1 [2]) was 20-30%, the “inhibition of hSGLT1 in dependence of intracellular monosaccharide concentration” value (hSGLT1 [2]) was “inhibits hSGLT1 at low or high concentrations of intracellular monosaccharides” and the “inhibitory effect on expression of hSGLT1 when the exocytotic pathway is blocked” value (hSGLT1 [2]) was “could be prevented”. The “intracellular concentration of QCP giving 35-40% inhibition of hSGLT1 expressed glucose uptake” value (hSGLT1 [2]) was “below 5 nM”, the “body weight after feeding” value [3] was “body weight is reduced” and the “inward current in control oocytes not injected with hPEP1-cRNA” value (hPEPT1) was “no inward currents”. For the same substance, the “inward current induced in oocytes expressing hPEPT1” value (hPEPT1) was “significant inward currents”, the “effect on AMG uptake in oocytes in which hSGLT1 but not hPEPT1 was expressed” value (hSGLT1 [4]) was “no effect” and the “inhibition of [14C]AMG uptake in oocytes expressing hSGLT1 plus hPEPT1” value (hSGLT1 [4]) was “about 50%”.
